Biological target: T1, recombinant human SAE enzyme (Homo sapiens, UniProt Q9UBT2)
T1 sequence (Q9UBT2 1-640): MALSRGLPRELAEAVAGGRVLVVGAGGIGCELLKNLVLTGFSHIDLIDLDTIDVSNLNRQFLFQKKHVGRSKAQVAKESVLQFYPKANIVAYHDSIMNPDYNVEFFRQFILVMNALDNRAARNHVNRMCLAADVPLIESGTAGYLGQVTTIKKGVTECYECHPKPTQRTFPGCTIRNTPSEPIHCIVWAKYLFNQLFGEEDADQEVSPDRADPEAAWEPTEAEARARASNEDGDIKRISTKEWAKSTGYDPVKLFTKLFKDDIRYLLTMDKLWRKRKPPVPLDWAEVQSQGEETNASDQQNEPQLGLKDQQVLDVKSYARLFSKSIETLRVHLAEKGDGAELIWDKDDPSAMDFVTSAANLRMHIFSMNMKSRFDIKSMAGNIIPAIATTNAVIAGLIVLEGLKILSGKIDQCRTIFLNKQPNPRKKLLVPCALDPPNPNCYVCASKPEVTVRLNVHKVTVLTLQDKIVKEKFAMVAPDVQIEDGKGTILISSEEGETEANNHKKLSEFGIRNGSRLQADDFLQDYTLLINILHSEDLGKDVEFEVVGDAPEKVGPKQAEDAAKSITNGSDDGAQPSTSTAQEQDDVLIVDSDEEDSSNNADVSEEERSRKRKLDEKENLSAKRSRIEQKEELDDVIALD
T1 sequence (Q9UBE0 1-346 partner): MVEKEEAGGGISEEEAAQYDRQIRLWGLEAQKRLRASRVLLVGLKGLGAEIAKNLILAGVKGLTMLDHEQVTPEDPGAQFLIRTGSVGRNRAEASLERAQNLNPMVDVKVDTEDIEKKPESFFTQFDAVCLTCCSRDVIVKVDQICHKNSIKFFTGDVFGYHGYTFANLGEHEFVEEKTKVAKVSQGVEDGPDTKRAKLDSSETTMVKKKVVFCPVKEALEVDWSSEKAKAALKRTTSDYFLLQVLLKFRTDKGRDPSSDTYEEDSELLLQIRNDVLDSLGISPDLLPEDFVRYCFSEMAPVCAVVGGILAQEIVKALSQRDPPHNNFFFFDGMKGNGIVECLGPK
Assay: SAE HTRF Enzyme Assay
Format: biochemical
Details: for IC50: class symbols A-C; for inhibition at 0.111 µM: compound concentration 0.111 μM, read-out: Percent Inhibition
Method: The SAE enzymatic reaction totals 50 μl and contains 50 mM HEPES Hemisodium (pH 7.5), 0.05% BSA, 5 mM MgCl2, 0.5 μM ATP, 250 μM GSH, 0.01 μM Ubc9-GST, 0.125 μM Sumo-Flag and 0.11 nM recombinant human SAE enzyme. The enzymatic reaction mixture with and without inhibitor, Is incubated at 24° C. for 105 min in a 384-well plate before termination with […] of Stop/Detection buffer (0.1M HEPES Hemisodium pH 7.5, 0.05% Tween20, 20 mM EDTA, 410 mM KF, 0.53 nM Europium-Cryptate labeled monoclonal anti-Flag M2 Antibody (CisBio International) and 8.125 μg/ml PHYCOLINK goat anti-GST allophycocyanin (XL-APC) antibody (Prozyme)). After incubation for 2 hours at 24° C., quantification of FRET is performed on the Pherostar™ (BMG Labtech). Percentage inhibition values at a single concentration or enzyme inhibition (IC50) values are determined from those curves. One skilled in the art will appreciate that the values generated either as percentage inhibition at a single concentration or IC50 values are subject to experimental variation.

SMILES: CC(C)(C)C#CCn1ccc(C(=O)c2cncnc2N[C@@H]2C[C@H](COS(N)(=O)=O)[C@@H](O)C2)n1 [Compound I-113, {(1R,2S,4R)-4-[(5-{[1-(4,4-dimethylpent-2-yn-1-yl)-1H-pyrazol-3-yl]carbonyl}pyrimidin-4-yl)amino]-2-hydroxycyclopentyl}methyl sulfamate]
- IC50: 10 to 100 nM
- inhibition at 0.111 µM: 81%

SMILES: NS(=O)(=O)OC[C@H]1C[C@@H](Nc2ncncc2C(=O)c2ccn(Cc3cccc4nccn34)c2)[C@@H](F)[C@@H]1O [Compound I-237, {(1R,2R,3R,4R)-3-fluoro-2-hydroxy-4-[(5-{[1-(imidazo[1,2-a]pyridin-5-ylmethyl)-1H-pyrrol-3-yl]carbonyl}pyimidin-4-yl)amino]cyclopentyl}methyl sulfamate]
- IC50: 10 to 100 nM
- inhibition at 0.111 µM: 85%

SMILES: NS(=O)(=O)OC[C@H]1C[C@@H](Nc2ncncc2C(=O)c2ccn(Cc3cccc(OC(F)(F)F)c3)c2)C[C@@H]1O [Compound I-271, [(1R,2S,4R)-2-hydroxy-4-{[5-({1-[3-(trifluoromethoxy)benzyl]-1H-pyrrol-3-yl}carbonyl)pyrimidin-4-yl]amino}cyclopentyl]methyl sulfamate]
- IC50: < 10 nM
- inhibition at 0.111 µM: 97%

SMILES: CC(C)(c1ccccc1)n1ccc(C(=O)c2cncnc2N[C@@H]2C[C@H](COS(N)(=O)=O)[C@@H](O)C2)c1 [Compound I-76, {(1R,2S,4R)-2-hydroxy-4-[(5-{[1-(2-phenylpropan-2-yl)-1H-pyrrol-3-yl]carbonyl}pyrimidin-4-yl)amino]cyclopentyl}methyl sulfamate]
- IC50: 10 to 100 nM
- inhibition at 0.111 µM: 80%

SMILES: CC1(C)CCC(Cn2ccc(C(=O)c3cncnc3N[C@@H]3C[C@H](COS(N)(=O)=O)[C@@H](O)C3)n2)O1 (mixture of isomers) [Compound I-77, [(1R,2S,4R)-4-({5-[(1-{[(2R)-5,5-dimethyltetrahydrofuran-2-yl]methyl}-1H-pyrazol-3-yl)carbonyl]pyrimidin-4-yl}amino)-2-hydroxycyclopentyl]methyl sulfamate and [(1R,2S,4R)-4-({5-[(1-{[(2S)-5,5-dimethyltetrahydrofuran-2-yl]methyl}-1H-pyrazol-3-yl)carbonyl]pyrimidin-4-yl}amino)-2-hydroxycyclopentyl]methyl sulfamate]
- IC50: 100 to 1000 nM
- inhibition at 0.111 µM: 51%

SMILES: CC(C)Cn1ccc(C(=O)c2cncnc2N[C@@H]2C[C@H](COS(N)(=O)=O)[C@@H](O)[C@H]2O)n1 [Compound I-173, [(1R,2R,3S,4R)-2,3-dihydroxy-4-({5-[(1-isobutyl-1H-pyrazol-3-yl)carbonyl]pyrimidin-4-yl}amino)cyclopentyl]methyl sulfamate]
- IC50: 10 to 100 nM
- inhibition at 0.111 µM: 71%

SMILES: NS(=O)(=O)OC[C@H]1C[C@@H](Nc2ncncc2C(=O)c2ccn(Cc3cccc(Oc4ccc(F)cc4)c3)n2)[C@H](O)[C@@H]1O [Compound I-229, [(1R,2R,3S,4R)-4-{[5-({1-[3-(4-fluorophenoxy)benzyl]-1H-pyrazol-3-yl}carbonyl)pyrimidin-4-yl]amino}-2,3-dihydroxycyclopentyl]methyl sulfamate]
- IC50: 10 to 100 nM
- inhibition at 0.111 µM: 88%

SMILES: NS(=O)(=O)OC[C@H]1C[C@@H](Nc2ncncc2C(=O)c2ccn(Cc3ccc(Cl)c(OC(F)(F)F)c3)n2)[C@H](O)[C@@H]1O [Compound I-100, [(1R,2R,3S,4R)-4-{[5-({1-[4-chloro-3-(trifluoromethoxy)benzyl]-1H-pyrazol-3-yl}carbonyl)pyrimidin-4-yl]amino}-2,3-dihydroxycyclopentyl]methyl sulfamate]
- IC50: < 10 nM
- inhibition at 0.111 µM: 98%

SMILES: NS(=O)(=O)OC[C@H]1C[C@@H](Nc2ccncc2C(=O)c2ccn(Cc3ccc(Cl)c(Cl)c3)c2)C[C@@H]1O [Compound I-233, {(1R,2S,4R)-4-[(3-{[1-(3,4-dichlorobenzyl)-1H-pyrrol-3-yl]carbonyl}pyridin-4-yl)amino]-2-hydroxycyclopentyl}methyl sulfamate]
- IC50: < 10 nM
- inhibition at 0.111 µM: 98%

SMILES: NS(=O)(=O)OC[C@H]1C[C@@H](Nc2ncncc2C(=O)c2ccn(Cc3cnc(C(F)(F)F)s3)c2)C[C@@H]1O [Compound I-73, [(1R,2S,4R)-2-hydroxy-4-({5-[(1-{[2-(trifluoromethyl)-1,3-thiazol-5-yl]methyl}-1H-pyrrol-3-yl)carbonyl]pyrimidin-4-yl}amino)cyclopentyl]methyl sulfamate]
- IC50: < 10 nM
- inhibition at 0.111 µM: 94%

SMILES: C=CCn1ccc(C(=O)c2cncnc2N[C@@H]2C[C@H](COS(N)(=O)=O)[C@@H](O)C2)c1 [Compound I-291, [(1R,2S,4R)-4-({5-[(1-allyl-1H-pyrrol-3-yl)carbonyl]pyrimidin-4-yl}amino)-2-hydroxycyclopentyl]methyl sulfamate]
- IC50: 10 to 100 nM
- inhibition at 0.111 µM: 79%

SMILES: NS(=O)(=O)OC[C@H]1C[C@@H](Nc2ncncc2C(=O)c2ccn(Cc3cccc(I)c3)n2)[C@H](O)[C@@H]1O [Compound I-221, {(1R,2R,3S,4R)-2,3-dihydroxy-4-[(5-{[1-(3-iodobenzyl)-1H-pyrazol-3-yl]carbonyl}pyrimidin-4-yl)amino]cyclopentyl}methyl sulfamate]
- IC50: < 10 nM
- inhibition at 0.111 µM: 100%

SMILES: COc1cccc(Cn2ccc(C(=O)c3cncnc3N[C@@H]3C[C@H](COS(N)(=O)=O)[C@@H](O)[C@@H]3F)c2)n1 [Compound I-188, [(1R,2R,3R,4R)-3-fluoro-2-hydroxy-4-{[5-({1-[(6-methoxypyridin-2-yl)methyl]-1H-pyrrol-3-yl}carbonyl)pyrimidin-4-yl]amino}cyclopentyl]methyl sulfamate]
- IC50: < 10 nM
- inhibition at 0.111 µM: 98%

SMILES: NS(=O)(=O)OC[C@H]1C[C@@H](Nc2ncncc2C(=O)c2ccn(Cc3cc(I)ccc3Cl)n2)C[C@@H]1O [Compound I-104, {(1R,2S,4R)-4-[(5-{[1-(2-chloro-5-iodobenzyl)-1H-pyrazol-3-yl]carbonyl}pyrimidin-4-yl)amino]-2-hydroxycyclopentyl}methyl sulfamate]
- IC50: < 10 nM
- inhibition at 0.111 µM: 100%

SMILES: NS(=O)(=O)OC[C@H]1C[C@@H](Nc2ccncc2C(=O)c2ccn(Cc3cccc(OC(F)F)c3)n2)C[C@@H]1O [Compound I-246, [(1R,2S,4R)-4-{[3-({1-[3-(difluoromethoxy)benzyl]-1H-pyrazol-3-yl}carbonyl)pyridin-4-yl]amino}-2-hydroxycyclopentyl]methyl sulfamate]
- IC50: < 10 nM
- inhibition at 0.111 µM: 97%

SMILES: CC#CCCn1ccc(C(=O)c2cncnc2N[C@@H]2C[C@H](COS(N)(=O)=O)[C@@H](O)C2)n1 [Compound I-115]
- IC50: 100 to 1000 nM
- inhibition at 0.111 µM: 33%

SMILES: NS(=O)(=O)OC[C@H]1C[C@@H](Nc2ncncc2C(=O)c2ccn(Cc3cccc(C(F)(F)F)c3)n2)C[C@@H]1O [Compound I-140, [(1R,2S,4R)-2-hydroxy-4-{[5-({1-[3-(trifluoromethyl)benzyl]-1H-pyrazol-3-yl}carbonyl)pyrimidin-4-yl]amino}cyclopentyl]methyl sulfamate]
- IC50: < 10 nM
- inhibition at 0.111 µM: 98%

SMILES: NS(=O)(=O)OC[C@H]1C[C@@H](Nc2ncncc2C(=O)c2nn(Cc3cccc(Br)c3)cc2Cl)C[C@@H]1O [Compound I-111, {(1R,2S,4R)-4-[(5-{[1-(3-Bromobenzyl)-4-chloro-1H-pyrazol-3-yl]carbonyl}pyrimidin-4-yl)amino]-2-hydroxycyclopentyl}methyl sulfamate]
- IC50: < 10 nM
- inhibition at 0.111 µM: 91%

Reference: patent publication US9695154B2, “Heteroaryl inhibitors of sumo activating enzyme” (MILLENNIUM PHARMACEUTICALS, INC., priority 2013, dated 2017)
